3 compounds from patent US9814714B2, “Kinase modulation, and indications therefor” (Plexxikon Inc., priority 2015, dated 2017) can be followed below.

Read-outs that look alike come from different tables or passages of the source.

The test system of one experiment is COLO205 cells. Briefly: Growth inhibition assay (CellTiter-Glo), COLO205. The class given is cell-based. As to conditions: Homo sapiens. Here is the method: Cells were incubated overnight at 37° C.
2. […] The maximum concentration was about 5 mM.
Background: In ATP-based viability assays light output follows the ATP content of the culture.

A further experiment relates to A375 cells. As to the kind of experiment: Growth inhibition assay (CellTiter-Glo), A375. The class given is cell-based. As to conditions: Homo sapiens. Here is the method: Growth inhibition assay: Cells were plated into a 96-well plate at a density of 3000 cells per well and allowed to adhere overnight. Compounds were dissolved in DMSO, diluted 3-fold to create an 8-point titration and added to cells. After a 72-hour incubation, cell viability was examined using CellTiter-Glo® (Promega).
In order to determine the effects of Formula I on proliferation, a growth assay was established using melanoma cells (A375 and COLO829) and colorectal carcinoma cells (COLO205, HT-29) which each express the BRAFV600E mutation. To show selectivity over wild-type BRAF, several BRAF wild-type cell lines (K562, NOMO-1, MV-4-11 and ML-2) were also examined in the growth assay. The growth assay implemented the Promega CellTiter-Glo Luminescent Cell viability assay, which gives a luminescent readout that is proportional to the amount of ATP present in a cell sample. As ATP levels directly correlate with the number of viable cells, the luminescent signal can be used to determine the potency of Formula I to block the proliferation of the cell lines of interest.
1. 3,000 cells were plated in each well for cell lines A375, COLO205, COLO829, HT-29, and SK-MEL-3. 25,000 cells were plated in each well for cell lines K562, ML-2, MV-4-11, and
NOMO-1 of a 96-well tissue-culture-treated plate (Corning #3610) in a 50 μL volume. Cells were incubated overnight at 37° C.
2. Each test compound was plated as an 8-point titration, using 1:3 dilutions in DMSO. The maximum concentration was about 5 mM. Dilute DMSO and test compound of Formula I 1:250 in growth media.
3. 50 μL of the diluted compound was transferred into 50 μL cells, for a 500-fold final compound dilution (maximum concentration is typically 10 μM and DMSO concentration is 0.2%). The cells were incubated with DMSO/compound for 3 days at 37° C. in 5% CO2.
4. Cell Titer-Glo Luminescent Assay Reagent was brought to room temperature and reconstituted as directed in the product manual. The cell cultures were also brought to room temperature for about 20-30 minutes. […] Luminescence was measured on a Tecan Safire plate reader. […]

Experiment [1] concerns pERK in B9 cells (HRAS^Q61L). Briefly: Phospho-ERK AlphaScreen assay, pERK activation in B9. The experiment is classed as cell-based, murine. As to conditions: Mus musculus. How it is done:
Phospho-ERK AlphaScreen® assay: The degree of ERK phosphorylation was determined using an AlphaScreen® assay where an increase in ERK1/2 phosphorylation at Thr202/Tyr204 brought the donor and acceptor AlphaScreen® beads into close proximity, generating a signal for quantification. To determine the effects of compound treatment on phosphorylation of ERK1/2, cells were plated in a 96-well plate and treated with an 8-point titration of compound for one hour at 37° C. before lysis. To detect pERK, cell lysates were incubated with streptavidin-coated AlphaScreen® donor beads, anti-mouse IgG AlphaScreen® acceptor beads, a biotinylated anti-ERK1/2 rabbit antibody, and a mouse antibody that recognizes ERK1/2 only when it is phosphorylated on Thr202 and Tyr204. The biotinylated ERK1/2 antibody binds to both the streptavidin-coated AlphaScreen® donor beads and to ERK1/2 (regardless of its phosphorylation state), and the phospho-ERK1/2 antibody binds to the acceptor beads and to ERK1/2 that is phosphorylated at Thr202/Tyr204. An increase in ERK1/2 phosphorylation at Thr202/Tyr204 brings the donor and acceptor AlphaScreen® beads into close proximity, generating a signal that can be quantified on an EnVision reader (Perkin Elmer).
Using AlphaScreen® technology, the ability of Formula I to affect the phosphorylation of ERK and MEK in the cells was measured quantitatively. Following treatment with compound, the cells were lysed, and a sample of the lysate was transferred to an assay plate. The lysate was mixed with antibodies directed against total ERK/MEK, antibodies that recognize specific phosphorylation sites on ERK/MEK, AlphaScreen® anti-mouse IgG Acceptor beads, and Streptavidin Donor beads. Upon excitation of the donor beads with laser light at 680 nm, singlet oxygen was produced. This singlet oxygen was rapidly quenched, unless the AlphaScreen® Acceptor beads were in close proximity, in which case a proximity signal can be measured at 580 nm. In the presence of phosphorylated ERK/MEK, there is a very strong proximity signal.
1. One day before the assay, 50,000 cells were plated in each well of a 96-well tissue-culture-treated plate (Corning #3610) in a 50 μL volume. Cells were incubated at 37° C. overnight.
2. Compounds were diluted in DMSO to 500× final concentration. Each compound was plated as an 8-point titration, using 1:3 dilutions in DMSO. The maximum concentration was about 5 mM.
3. 1 μl of compound was added to each well of a 96-well polypropylene plate (Corning #3363). For A375, COLO829, SK-MEL-3, HCT116, and HT-29, the high control was DMSO, and the low control was 10 μM PLX4720 (CAS No. 918505-84-7). For B9 and IPC-298, the high control was 3.33 μM PLX4720, and the low control was DMSO. 4. 249 μL growth media was added to compounds, diluting them 250-fold. 5. […] The compound was incubated with the cells at 37° C. for one hour. 6. The media was aspirated, and the cells were lysed in 50 μL of ice-cold 1× Cell Lysis buffer. The plates were incubated on ice for 5 minutes to allow complete lysis of the cells. 7. A mixture of biotinylated donor antibody, acceptor antibody, and anti-mouse IgG AlphaScreen® acceptor beads in 1× AlphaLISA immunoassay buffer was prepared. 8. 5 μL of lysate was transferred to a 384-well assay plate (Perkin Elmer #6005359). 5 μL of the antibody and acceptor bead mixture was added. The plates were spinned.
For orientation: Alpha assays give light when donor and acceptor beads are brought close together.

Where [2] appears, read: COLO 205, 72-hour incubation, read-out: In vitro growth inhibition IC50, COLO205.
Where [3] appears, read: A-375, 72-hour incubation, read-out: In vitro growth inhibition IC50, A375.
Setting [4] is: B9, HRAS^Q61L, concentration increasing pERK to 50% compared to positive control 10 μM PLX4720, read-out: pERK activation EC50 B9.
[5] abbreviates: read-out: pERK activation Mean EC50, B9.

As to `CCCS(=O)(=O)Nc1ccc(F)c(C(=O)c2c[nH]c3ncc(-c4ccc(Cl)cc4)cc23)c1F` [Vemurafenib, vemurafenib, reference compound], the values for the IC50 with COLO205 cells (setting [2]) and with A375 cells (setting [3]) were 250 nM and 330 nM, respectively. Also, the results for the EC50 in experiment [1] (setting [4]) and in experiment [1] (setting [5]) were 360 nM and 560 nM, respectively.

With `CCN(C)S(=O)(=O)Nc1ccc(F)c(C(=O)c2c[nH]c3ncc(-c4cnc(C5CC5)nc4)cc23)c1F` [Formula II, 5-(2-cyclopropylpyrimidin-5-yl)-3-[3-[[ethyl(methyl)sulfamoyl]amino]-2,6-difluoro-benzoyl]-1H-pyrrolo[2,3-b]pyridine], the IC50 (usually the concentration that gives 50% inhibition) was determined as 160 nM in the experiment with COLO205 cells (setting [2]) and 170 nM in the experiment with A375 cells (setting [3]). Further, the EC50 (usually the concentration giving half of the maximal effect) in experiment [1] (setting [4]) was greater than 200000 nM.

Consider `O=C(c1c(F)ccc(NS(=O)(=O)N2CC[C@@H](F)C2)c1F)c1c[nH]c2ncc(-c3cnc(C4CC4)nc3)cc12` [Formula I, (3R)—N-[3-[5-(2-cyclopropylpyrimidin-5-yl)-1H-pyrrolo[2,3-b]pyridine-3-carbonyl]-2,4-difluorophenyl]-3-fluoropyrrolidine-1-sulfonamide], for which the IC50 with COLO205 cells (COLO 205, 72 h, Table 4, colorectal adenocarcinoma, BRAF V600E/WT, RAS WT, 3 days, read-out: Growth IC50 Colo205) is 10 nM; with A375 cells (A-375, 72 h, Table 4, melanoma, BRAF V600E, RAS WT, 3 days, read-out: Growth IC50 A375), 50 nM. Further, the EC50 in experiment [1] (setting [4]) was greater than 200000 nM; in experiment [1] (setting [5]) it was no less than 10000 nM.
